Experimental data from patent US6720346B2, “Thiazole benzamide derivatives and pharmaceutical compositions for inhibiting cell proliferation” (Agouron Pharmaceuticals, Inc., priority 2001, dated 2004).
Where a name gives a salt, the structure may show the parent alone.

Experiments:
[1] = target: T1, Phosphorylated FGF receptor kinase (FGFR1 cytosolic domain) (Homo sapiens, UniProt P11362, C488A/C584S/L457V); assay: Inhibition of phosphorylated FGF receptor tyrosine kinase activity (coupled spectrophotometric assay); type: biochemical; settings: read-out: P-FGF % Inhibition at 1 μM
T1 construct: FGFR1 tyrosine kinase (amino acids 456-766); made in house; host or cells: Sf9 insect cells (baculovirus)
T1 sequence (P11362 456-766 L457V/C488A/C584S): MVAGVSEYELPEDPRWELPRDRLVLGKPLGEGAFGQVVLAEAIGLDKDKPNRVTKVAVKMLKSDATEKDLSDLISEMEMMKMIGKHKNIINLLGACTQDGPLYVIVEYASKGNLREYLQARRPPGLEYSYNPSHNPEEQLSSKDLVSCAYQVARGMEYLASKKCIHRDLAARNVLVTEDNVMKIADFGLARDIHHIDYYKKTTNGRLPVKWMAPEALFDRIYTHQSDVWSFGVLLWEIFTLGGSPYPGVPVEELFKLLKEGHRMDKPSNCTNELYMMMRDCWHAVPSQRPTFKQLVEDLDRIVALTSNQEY
Method: Cloning, expression and purification of the cytosolic domain of FGFR1 tyrosine kinase (amino acids 456-766) containing three amino acid substitutions (L457V, C488A, and C584S) were conducted as previously described (Mohammadi, M., Schiessinger, J., & Hubbard, S. R. Cell, 86, (1996) 577-587). This domain was expressed in Sf9 insect cells using a baculovirus expression vector, and protein was purified using conventional techniques. The LCK tyrosine kinase was expressed in insect cells as an N-terminal deletion starting from amino acid 223 to the end of the protein at amino acid 509. The N-terminus of the protein also had two amino acid substitutions, P223M and C224D. Kinases were purified using conventional chromatographic methods.
Tyrosine kinase activity was measured using a coupled, continuous spectrophotometric assay, in which production of phosphorylated poly(Glu,Tyr; 4:1) substrate and ADP is coupled to the pyruvate kinase-catalyzed transfer of a phosphate from phosphoenolpyruvate to ADP, with generation of pyruvate and regeneration of ATP. Pyruvate production is in turn coupled to the lactate dehydrogenase-catalyzed reduction of pyruvate to form lactate, with concomitant conversion of NADH to NAD^+. Loss of NADH is monitored by measuring absorbance at 340 nm (see e.g., Technikova-Dobrova et al., “Spectrophotometric Determination of Functional Characteristics of Protein Kinases with Coupled Enzymatic Assay,” FEBS Letters, 292 (1991), pp. 69-72). Enzyme activity was measured in the presence of 200 mM HEPES (pH 7.5), 2 mM phosphoenolpyruvate, 0.3 mM NADH, 20 mM MgCl2, 100 μM ATP, 5 mM DTT, 5.1 or 25 mM poly (Glu,Tyr) 4:1 for P-FGF or P-LCK assays, respectively, and 15 units/mL each of pyruvate kinase and lactate dehydrogenase. Phosphorylated FGF receptor kinase was present at 100 nM and phosphorylated LCK kinase was present at 50 nM. Assays were performed under initial rate conditions at 37° C., and rates were corrected for any background rate measured in the absence of enzyme. Percent inhibition was calculated relative to control enzyme assayed in the presence of 2% (v/v) DMSO.

human CDK4/cyclin D3 = target: T2, human CDK4/cyclin D3 (Homo sapiens, UniProt P11802); assay: Inhibition of CDK4/cyclin D retinoblastoma kinase activity (Ki; % inhibition); type: biochemical; settings: apparent Ki, CDK4/cyclin D3, Rb substrate
T2 construct: made in house; host or cells: insect cells co-infected with baculovirus vectors
T2 sequence (P11802 whole entry): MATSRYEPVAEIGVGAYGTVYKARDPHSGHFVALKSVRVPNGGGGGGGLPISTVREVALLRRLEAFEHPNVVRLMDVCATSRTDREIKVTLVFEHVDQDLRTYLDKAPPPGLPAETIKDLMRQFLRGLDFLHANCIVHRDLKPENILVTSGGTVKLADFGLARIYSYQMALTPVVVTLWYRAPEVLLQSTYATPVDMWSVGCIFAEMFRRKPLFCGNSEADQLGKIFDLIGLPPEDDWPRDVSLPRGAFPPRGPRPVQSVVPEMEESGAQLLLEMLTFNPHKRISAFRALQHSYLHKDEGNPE
T2 sequence (P30281 1-264 partner limits assumed): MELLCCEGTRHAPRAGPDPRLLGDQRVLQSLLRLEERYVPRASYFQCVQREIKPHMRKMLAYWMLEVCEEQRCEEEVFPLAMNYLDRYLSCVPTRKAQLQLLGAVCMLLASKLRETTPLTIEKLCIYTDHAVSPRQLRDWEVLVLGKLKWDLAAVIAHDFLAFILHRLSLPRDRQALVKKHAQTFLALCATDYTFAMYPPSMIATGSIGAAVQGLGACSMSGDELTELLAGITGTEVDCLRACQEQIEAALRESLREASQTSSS
How it was run: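 Insect-cell-expressed CDK4 with truncated cyclin D3 (1-264), 5 nM, phosphorylating His-tagged Rb fragment (386-928) with 25 μM [32/33P]ATP at pH 7.4, 30 °C, 20 min (60 min for tight binders). Filter capture, phosphorimager read; % inhibition at 30 nM compound, Ki from competitive or tight-binding fits.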

HCT-116 cell line = assay: Inhibition of cell growth, MTT tetrazolium salt assay; type: cell-based; settings: Homo sapiens, HCT-116, 120 h, MTT, three to five days; for IC90: 90% inhibition of growth
How it was run: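 Cells in McCoy's 5A medium were given 4 h before compound addition in 0.5% (v/v) DMSO, then incubated 3–5 days at 37 °C, 5% CO2. After 4 h with 0.2 mg/mL MTT, DMSO-solubilized formazan was read at 540 nm; 50% and 90% growth-inhibitory concentrations came from semi-log plots against vehicle controls.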

Row | Structure (SMILES) | inhibition at 1 µM [1] [%] | Ki (human CDK4/cyclin D3) [µM] | IC50 (HCT-116 cell line) [µM] | IC90 (HCT-116 cell line) [µM]
1 | CC(CN(C)C)NC(=O)c1ccc(Nc2nc(N)c(C(=O)c3c(F)cccc3F)s2)cc1 (centres unmarked) [Example A20, 4-[4-Amino-5-(2,6-difluoro-benzoyl)-thiazol-2-ylamino]-N-(2-dimethylamino-1RS-methyl-ethyl)-benzamide Hydrochloride Salt] | 0 | 0.032 | 0.076 | 0.18
2 | Nc1nc(Nc2ccc(C(=O)NCCN3CCCCC3)cc2)sc1C(=O)c1c(F)cccc1F [Example A15, 4-[4-Amino-5-(2,6-difluoro-benzoyl)-thiazol-2-ylamino]-N-(2-piperidin-1-yl-ethyl)-benzamide] | 0 | 0.007 | 0.09 | 
3 | Nc1nc(Nc2ccc(C(=O)NCCc3ccc(O)cc3)cc2)sc1C(=O)c1c(F)cccc1F [Example A14, 4-[4-Amino-5-(2,6-difluoro-benzoyl)-thiazol-2-ylamino]-N-[2-(4-hydroxy-phenyl)-ethyl]-benzamide] | 0 | 0.014 | 0.042 | 

More lines, now with the values ahead:

Row | inhibition at 1 µM [1] [%] | Ki (human CDK4/cyclin D3) [µM] | IC50 (HCT-116 cell line) [µM] | IC90 (HCT-116 cell line) [µM] | Structure (SMILES)
4 | 0 | 0.007 | 0.03 | 0.07 | CN1CCC[C@H]1CNC(=O)c1ccc(Nc2nc(N)c(C(=O)c3c(F)cccc3F)s2)cc1 [Example A31, 4-[4-Amino-5-(2,6-difluoro-benzoyl)-thiazol-2-ylamino]-N-(1-methyl-pyrrolidin-2S-yl-methyl)-benzamide Dihydrochloride]
5 | 0 | 0.105 | 0.1 |  | Nc1nc(Nc2ccc(C(=O)Nc3ccc(N4CCOCC4)cc3)cc2)sc1C(=O)c1c(F)cccc1F [Example A21]
